Measurements as given in patent US8956589B2, “Imaging diagnostic agent and extracorporeal diagnostic agent for incurable neurological diseases” (Shiga University of Medical Science, priority 2009, dated 2015).

Columns and labels:
[1] = target: T1, amyloid β peptide aggregates (Homo sapiens (Human), UniProt P05067); test: Quantity determination of amyloid β aggregates by flow cytometry with anti-Aβ antibody microspheres; conditions: FACS, 5 to 60 minutes at 4° C., background of nonspecific IgG1 microspheres subtracted
Method: The washing operation was performed as follows: 0.75 mL of PBS-T was added, the resultant mixture was centrifuged at 10,000×G for 5 minutes, and then the supernatant was removed. […] During the reaction, the mixture was agitated every 5 to 15 minutes. After the reaction, the microspheres were washed 3 times by the same method above, then suspended in PBS-T 0.25 mL, and kept at 4° C. until they were used. Negative control microspheres were prepared by use of a nonspecific mouse IgG1 antibody (by SIGMA, No. M 9269, mouse myeloma-derived IgG1, 1 mg/mL) by the same method. […] By subtracting as a background the analysis value of the negative control microspheres to which the nonspecific mouse IgG1 antibody was bound, the number of counts of anti Aβ antibody-specific fluorescence positive microsphere particles was determined.

[2] = target: amyloid β peptide aggregates (1-40) (Homo sapiens (Human), UniProt P05067); type: binding; conditions: aggregates 1 μM, thioflavin-T 3 μM, compound 0.02 to 20 μM, 30 minutes at 23° C., pH 7.4; read-out: Amyloid binding property (IC50)
Method: The binding capacity of the compounds to an amyloid β peptide aggregate was quantitatively measured by a thioflavin-T fluorescence inhibition test. […] The resultant solution was cause to react for 30 minutes at 23° C. with the light shielded. Then, the fluorescence of thioflavin-T was measured under a condition of Ex=440 nm, Em=490 nm, Cutoff filter=475 nm. The IC50 values were calculated by using an analysis software, GraphPad PRISM Ver.5 (GraphPad Software, Inc.).

[3] = target: T1, amyloid β peptide aggregates; test: Model experiment of in-vitro diagnostic agent (colour change of solution)
Method: Amyloid β peptide aggregates were prepared by the method described in test example 6, and caused to precipitate in the solution by prolonging the reaction time. After the aggregates were prepared in this manner, the precipitation containing the amyloid β peptide aggregates and a supernatant not containing the amyloid β peptide aggregates were separated. The precipitation containing the amyloid aggregates was suspended at a concentration of 100 μM, in a buffer. Then, each of compounds 23 and 1 was dissolved at a concentration of 20 μg/ml in a 50 mM phosphate buffer (pH 7.5) containing 100 mM NaCl. For each compound, four kinds of liquid mixtures were prepared, that is, a liquid mixture obtained by adding 100 μl of a buffer into 100 μl of the compound containing solution (A of FIG. 13); a liquid mixture obtained by adding 100 μl of a buffer in which amyloid β peptides before agglutination reaction were dissolved, to 100 μl of the compound containing solution (B of FIG. 13); a liquid mixture obtained by adding 100 μl of a buffer in which amyloid β peptide aggregates were suspended, to 100 μl of the compound containing solution (C of FIG. 13); and a liquid mixture obtained by adding 100 μl of a buffer in which amyloid β peptide aggregates were suspended, to 100 μl of a buffer not containing a compound (D of FIG. 13). Then, the four kinds of liquid mixtures were left to stand at room temperature. […] Only the sample in which compound 1 and amyloid β peptide aggregates were mixed began to be stained in red after 5 minutes, and the color became gradually stronger and changed into strong red after about 30 minutes. […] When the absorption spectrum of the sample that had turned into red was measured, the peak had shifted towards a longer wavelength. […] As a result, it is considered that the keto/enol equilibrium in the solution was lost, and structural changes happened, that is, the keto bodies newly turned into enol bodies in the solution.

senile plaques = test: Brain tissue staining after in vivo administration; parameters: species or system mouse
Method: The brain of the mouse scanned by ^19F-MRI in test example 2 was taken out and fixed for 2 days in a 4%-formalin solution, and then placed in a 15%-sucrose solution for cryoprotection. Then, a 20 μm-thick slice was created by a cryostat. Next, the slice was caused to react with a rabbit antihuman amyloid β polyclonal antibody (IBL, 0.2 μg/ml) at 4° C. overnight. Further, the sample was washed with PBS-T for 10 minutes 3 times, and then caused to react with Alexa 647 anti-rabbit IgG antibody (Molecular Probes, 500-fold dilution) for 4 hours at room temperature. This sample was washed with PBS-T for 10 minutes 3 times, and then counterstained with cresyl violet for 1 minute. Then, the sample was further washed with distilled water, and then enclosed with glycerol, and this sample was used for observation. The binding capacity of the compound to a senile plaque was observed by an inverted fluorescence microscope. It should be noted that a compound image was measured by use of the FITC filter and an amyloid β protein image was measured by means of the Cy5 filter. The same treatment was performed onto a normal mouse.

[4] = target: T1, amyloid β peptide aggregates; test: Binding to and release from precipitated amyloid β peptide aggregates (absorbance of supernatant)
Method: Each of compound 23, compound 1, and compound 24 is dissolved at a concentration of 2 μg/mL, in a phosphate buffer, and then amyloid β peptide aggregates are added to each solution, and the resultant solution is caused to react for 1 hour. Then, the solution is centrifuged for 10 minutes at 6,000 rpm, to separate the amyloid β peptide aggregates. A supernatant was removed, and an absorbance measurement was performed to measure the quantity of the compound that had not bound to the amyloid peptide aggregates and that were contained in the supernatant. The obtained quantity was subtracted from the original quantity of the compound, whereby the quantity of the compound that had bound to the amyloid β peptide aggregates was calculated.
Next, the precipitated amyloid β peptide aggregates were washed, a buffer was added thereto, and the quantity of the compound that got released was measured. Then, the rate of the compound that had bound to amyloid β peptide aggregates and then was eluted into the buffer was calculated using the original quantity of the compound as 100%.

senile plaque = test: 19F-MR image measurement in amyloid precursor protein transgenic mouse (Tg2576); type: in vivo; conditions: tail vein, 8 mg/ml 250 μl, measured for 3 hours after 3 hours post administration
Method: A quantity of 4.5 mg of compound (I) was measured, and 0.112 ml of Cremophol EL was added to the measured compound. The compound was dissolved by use of a glass stick while the mixture being heated. Then, 0.45 ml of saline was added to the mixture to prepare an administration solution (8 mg/ml).
This administration solution 250 μl was administered, in one shot (about 90 seconds), to the tail vein of an amyloid precursor protein transgenic mouse (Tg2576, created according to the method disclosed in Science, 274,99 (1996)) under anesthesia by pentobarbital sodium.
After the administration was ended, with the mouse under anesthesia, the head of the mouse was continuously measured in units of 1 hour by use of an MRI device. Then, pieces of data were added to create images. ^19F-MRI brain images were obtained by chemical shift imaging method (CSI method). The MRI device that was used was 7T Unity Inova MR Scanner (by Varian).

[5] = compound 20 μg/ml solution mixed with amyloid β peptide aggregates, room temperature

T1 sequence (P05067 672-711): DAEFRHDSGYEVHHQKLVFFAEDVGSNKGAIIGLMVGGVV
Chain of amyloid β peptide aggregates (1-40) (P05067 672-711): as above

COC(=O)CCC(C(=O)/C=C/c1ccc(O)c(OC(F)(F)F)c1)C(=O)/C=C/c1ccc(O)c(OC(F)(F)F)c1 [Compound 1, 1,7-bis(4′-hydroxy-3′-trifluoromethoxyphenyl)-4-methoxycarbonylethyl-1,6-heptadiene-3,5-dione]
counts of fluorescence positive microsphere particles depending on aggregate concentration [1]: quantitativeness was confirmed
IC50 [2]: 0.44 µM
time at which colour changed into strong red [3, 5]: about 30 minutes
time at which sample began to be stained in red [3, 5]: 5 min
colour of sample with amyloid β peptides before agglutination reaction ([3]; compound 20 μg/ml solution mixed with non-aggregated amyloid β peptides): did not change
transmissiveness through the blood-brain barrier (senile plaques; Tg2576 mouse after i.v. administration): confirmed
binding to senile plaques in vivo (senile plaques; brain slices of Tg2576 mouse after i.v. administration, fluorescence vs amyloid β antibody stain): sufficient binding
binding rate to amyloid β peptide aggregates ([4]; compound 2 μg/mL in phosphate buffer, 1 hour reaction): 57%
rate of compound released (eluted into buffer) from amyloid β peptide aggregates ([4]; washed precipitated aggregates, buffer added, original quantity as 100%): highest value
19F-MRI signal in brain (senile plaque): signals that are assumed to be corresponding to a senile plaque were detected in the brain
